Drawing on patent publication US20260070945A1, “MACROCYCLIC IMMUNOMODULATORS” (Bristol-Myers Squibb Company, priority 2022, published 2026), this text covers IC50 for eight compounds.

The structures appear in SMILES notation. Where a SMILES comes first, the peptide text is derived from it. Bridges are numbered along the chain shown (N, C = ends). [ ]: non-standard residue; d: D form. The star is where a group is joined. ξ: configuration not given here. Phe(3-CF3) = N[C@@H](Cc1cccc(C(F)(F)F)c1)C(=O)O; Phe(4-CF3) = N[C@@H](Cc1ccc(C(F)(F)F)cc1)C(=O)O; Phe(4-COOH) = N[C@@H](Cc1ccc(C(=O)O)cc1)C(=O)O; Bip = N[C@@H](Cc1ccc(-c2ccccc2)cc1)C(=O)O; NH(CH2)14COOH = O=C(O)CCCCCCCCCCCCCCN*; Phe(3-Me) = Cc1cccc(C[C@H](N)C(=O)O)c1; NH(CH2)12COOH = O=C(O)CCCCCCCCCCCCN*; Val(3-OH) = CC(C)(O)[C@H](N)C(=O)O; Cha = N[C@@H](CC1CCCCC1)C(=O)O; Thr(3ξ) = CC(O)[C@H](N)C(=O)O; Carboxymethyl = O=C(O)C*; NMeA = CN[C@@H](C)C(=O)O; Dab = NCC[C@H](N)C(=O)O; AEEA = NCCOCCOCC(=O)O

The test deals with T1, PD-1/PD-L1 interaction (PE-labeled human PD-L1-Ig binding to Jurkat cell line over-expressing human PD-1) (Homo sapiens, UniProt Q15116).
T1 construct: expressed in transfected cells; host or cells: Jurkat
T1 sequence (Q15116 25-288): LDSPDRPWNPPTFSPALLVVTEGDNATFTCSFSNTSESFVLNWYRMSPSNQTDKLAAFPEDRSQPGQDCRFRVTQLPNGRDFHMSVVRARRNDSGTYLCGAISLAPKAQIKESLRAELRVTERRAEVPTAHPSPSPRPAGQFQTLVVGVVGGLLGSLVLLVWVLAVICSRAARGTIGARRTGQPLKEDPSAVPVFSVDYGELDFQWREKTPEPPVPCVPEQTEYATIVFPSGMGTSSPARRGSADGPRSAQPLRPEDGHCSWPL
Nature of the test: Jurkat-PD-1 Cell Binding High-Content Screening Assay (CBA). The following applies: PE-labeled PD-L1-Ig 20 nM final, Jurkat-hPD-1 cells; read-out: Jurkat HPD1 PDL1 IC50. In outline: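 Compound is added first to the PD-1-expressing Jurkat cells and held 2 h at 37 °C in serum-containing DMEM. The fluorescent PD-L1 fusion follows at 20 nM final for 1 h. Fixed, Hoechst-stained cells are then imaged for bound label.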
For `CC(=O)NCCCC[C@@H]1NC(=O)[C@H](C(C)(C)O)NC(=O)[C@H](CC2CCCCC2)NC(=O)[C@H](CCN)NC(=O)[C@@H](CC(C)C)NC(=O)[C@H](C)N(C)C(=O)[C@H](CCC(N)=O)NC(=O)[C@H](Cc2ccc(-c3ccccc3)cc2)NC(=O)[C@H](Cc2ccc(C(=O)O)cc2)NC(=O)[C@H](Cc2cccc(C(F)(F)F)c2)NC(=O)[C@H](CC(=O)O)NC(=O)[C@H](Cc2ccc(OCC(=O)O)cc2)NC(=O)[C@H](Cc2ccc(C(F)(F)F)cc2)NC(=O)CSC[C@@H](C(=O)N[C@@H](CCN)C(=O)NCCOCCOCC(=O)NCCCCCCCCCCCCC(=O)O)NC1=O` [Example 2611] ({CH2CO}-[Phe(4-CF3)]Y(Carboxymethyl)D[Phe(3-CF3)][Phe(4-COOH)][Bip]Q[NMeA][dL][Dab][Cha][Val(3-OH)]K(Ac)C[Dab][AEEA]-{NH(CH2)12COOH}; thioether N-14), the concentration for half-maximal inhibition (IC50) (commonly the concentration that inhibits the measured activity by half) was found to be 60 nM. Turning to `CC(C)C[C@H]1NC(=O)[C@H](C)N(C)C(=O)[C@H](Cc2ccc(C(=O)O)cc2)NC(=O)[C@H](Cc2ccc(-c3ccccc3)cc2)NC(=O)[C@H](Cc2ccc(C(=O)O)cc2)NC(=O)[C@H](Cc2cccc(C(F)(F)F)c2)NC(=O)[C@H](CC(=O)O)NC(=O)[C@H](Cc2ccc(C(=O)O)cc2)NC(=O)[C@H](C(C)O)NC(=O)CSC[C@@H](C(=O)N[C@@H](CCN)C(=O)NCCOCCOCC(=O)NCCCCCCCCCCCCC(=O)O)NC(=O)[C@H](CC(=O)O)NC(=O)[C@H](C(C)C)NC(=O)[C@H](CC2CCCCC2)NC(=O)[C@H](CCN)NC1=O` (stereo partly drawn) [Example 2612] ({CH2CO}-[Thr(3ξ)][Phe(4-COOH)]D[Phe(3-CF3)][Phe(4-COOH)][Bip][Phe(4-COOH)][NMeA][dL][Dab][Cha]VDC[Dab][AEEA]-{NH(CH2)12COOH}; thioether N-14), the IC50 worked out at 62.9 nM. Regarding `CC(C)C[C@H]1NC(=O)[C@H](C)N(C)C(=O)[C@H](Cc2ccc(C(=O)O)cc2)NC(=O)[C@H](Cc2ccc(-c3ccccc3)cc2)NC(=O)[C@H](Cc2ccc(C(=O)O)cc2)NC(=O)[C@H](Cc2cccc(C(F)(F)F)c2)NC(=O)[C@H](CC(=O)O)NC(=O)[C@H](Cc2ccc(C(=O)O)cc2)NC(=O)[C@H](C(C)O)NC(=O)CSC[C@@H](C(=O)N[C@@H](CCN)C(=O)NCCOCCOCC(=O)NCCOCCOCC(=O)NCCCCCCCCCCCCCCC(=O)O)NC(=O)[C@H](CCC(=O)O)NC(=O)[C@H](C(C)C)NC(=O)[C@H](CC2CCCCC2)NC(=O)[C@H](CCN)NC1=O` (stereo partly drawn) [Example 2613] ({CH2CO}-[Thr(3ξ)][Phe(4-COOH)]D[Phe(3-CF3)][Phe(4-COOH)][Bip][Phe(4-COOH)][NMeA][dL][Dab][Cha]VEC[Dab][AEEA][AEEA]-{NH(CH2)14COOH}; thioether N-14), the IC50 was 383 nM. Regarding `CC(C)C[C@H]1NC(=O)[C@H](C)N(C)C(=O)[C@H](CCC(N)=O)NC(=O)[C@H](Cc2ccc(-c3ccccc3)cc2)NC(=O)[C@H](Cc2ccc(C(=O)O)cc2)NC(=O)[C@H](Cc2cccc(C(F)(F)F)c2)NC(=O)[C@H](CC(=O)O)NC(=O)[C@H](Cc2ccc(OCC(=O)O)cc2)NC(=O)[C@H](Cc2ccc(OCC(=O)O)cc2)NC(=O)CSC[C@@H](C(=O)N[C@@H](CCN)C(=O)NCCOCCOCC(=O)NCCOCCOCC(=O)NCCCCCCCCCCCCCCC(=O)O)NC(=O)[C@H](CO)NC(=O)[C@H](C(C)(C)O)NC(=O)[C@H](CC2CCCCC2)NC(=O)[C@H](CCN)NC1=O` [Example 2614] ({CH2CO}-Y(Carboxymethyl)Y(Carboxymethyl)D[Phe(3-CF3)][Phe(4-COOH)][Bip]Q[NMeA][dL][Dab][Cha][Val(3-OH)]SC[Dab][AEEA][AEEA]-{NH(CH2)14COOH}; thioether N-14), the concentration for half-maximal inhibition (IC50) came out at 190 nM.

Consider `CC(C)C[C@H]1NC(=O)[C@H](C)N(C)C(=O)[C@H](Cc2ccc(C(=O)O)cc2)NC(=O)[C@H](Cc2ccc(-c3ccccc3)cc2)NC(=O)[C@H](Cc2ccc(C(=O)O)cc2)NC(=O)[C@H](Cc2cccc(C(F)(F)F)c2)NC(=O)[C@H](CC(=O)O)NC(=O)[C@H](Cc2ccc(C(=O)O)cc2)NC(=O)[C@H](C(C)O)NC(=O)CSC[C@@H](C(=O)N[C@@H](CCN)C(=O)NCCOCCOCC(=O)NCCOCCOCC(=O)NCCCCCCCCCCCCC(=O)O)NC(=O)[C@H](CC(=O)O)NC(=O)[C@H](C(C)C)NC(=O)[C@H](CC2CCCCC2)NC(=O)[C@H](CCN)NC1=O` (stereo partly drawn) [Example 2615] ({CH2CO}-[Thr(3ξ)][Phe(4-COOH)]D[Phe(3-CF3)][Phe(4-COOH)][Bip][Phe(4-COOH)][NMeA][dL][Dab][Cha]VDC[Dab][AEEA][AEEA]-{NH(CH2)12COOH}; thioether N-14), for which the IC50 is 64.1 nM. Take `CC(C)C[C@H]1NC(=O)[C@H](C)N(C)C(=O)[C@H](Cc2ccc(C(=O)O)cc2)NC(=O)[C@H](Cc2ccc(-c3ccccc3)cc2)NC(=O)[C@H](Cc2ccc(C(=O)O)cc2)NC(=O)[C@H](Cc2cccc(C(F)(F)F)c2)NC(=O)[C@H](CC(=O)O)NC(=O)[C@H](Cc2ccc(C(=O)O)cc2)NC(=O)[C@H](C(C)O)NC(=O)CSC[C@@H](C(=O)N[C@@H](CCN)C(=O)NCCOCCOCC(=O)NCCOCCOCC(=O)NCCCCCCCCCCCCCCC(=O)O)NC(=O)[C@H](CC(=O)O)NC(=O)[C@H](C(C)C)NC(=O)[C@H](CC2CCCCC2)NC(=O)[C@H](CCN)NC1=O` (stereo partly drawn) [Example 2616] ({CH2CO}-[Thr(3ξ)][Phe(4-COOH)]D[Phe(3-CF3)][Phe(4-COOH)][Bip][Phe(4-COOH)][NMeA][dL][Dab][Cha]VDC[Dab][AEEA][AEEA]-{NH(CH2)14COOH}; thioether N-14): the concentration for half-maximal inhibition (IC50) was 427 nM. The result for `CC(=O)NCCCC[C@@H]1NC(=O)[C@H](C(C)(C)O)NC(=O)[C@H](CC2CCCCC2)NC(=O)[C@H](CCN)NC(=O)[C@@H](CC(C)C)NC(=O)[C@H](C)N(C)C(=O)[C@H](CCC(N)=O)NC(=O)[C@H](Cc2ccc(-c3ccccc3)cc2)NC(=O)[C@H](Cc2ccc(C(=O)O)cc2)NC(=O)[C@H](Cc2cccc(C(F)(F)F)c2)NC(=O)[C@H](CC(=O)O)NC(=O)[C@H](Cc2ccc(OCC(=O)O)cc2)NC(=O)[C@H](Cc2ccc(OCC(=O)O)cc2)NC(=O)CSC[C@@H](C(=O)N[C@@H](CCN)C(=O)NCCOCCOCC(=O)NCCCCCCCCCCCCC(=O)O)NC1=O` [Example 2617] ({CH2CO}-Y(Carboxymethyl)Y(Carboxymethyl)D[Phe(3-CF3)][Phe(4-COOH)][Bip]Q[NMeA][dL][Dab][Cha][Val(3-OH)]K(Ac)C[Dab][AEEA]-{NH(CH2)12COOH}; thioether N-14) reads 20.1 nM.

Take `CC(=O)NCCCC[C@@H]1NC(=O)[C@H](C(C)(C)O)NC(=O)[C@H](CC2CCCCC2)NC(=O)[C@H](CCN)NC(=O)[C@@H](CC(C)C)NC(=O)[C@H](C)N(C)C(=O)[C@H](CCC(N)=O)NC(=O)[C@H](Cc2ccc(-c3ccccc3)cc2)NC(=O)[C@H](Cc2ccc(C(F)(F)F)cc2)NC(=O)[C@H](Cc2cccc(C)c2)NC(=O)[C@H](CC(=O)O)NC(=O)[C@H](Cc2ccc(OCC(=O)O)cc2)NC(=O)[C@H](Cc2ccc(OCC(=O)O)cc2)NC(=O)CSC[C@@H](C(=O)N[C@@H](CCN)C(=O)NCCCCCCCCCCCCCCC(=O)O)NC1=O` [Example 2618] ({CH2CO}-Y(Carboxymethyl)Y(Carboxymethyl)D[Phe(3-Me)][Phe(4-CF3)][Bip]Q[NMeA][dL][Dab][Cha][Val(3-OH)]K(Ac)C[Dab]-{NH(CH2)14COOH}; thioether N-14): the half-maximal inhibitory concentration (IC50) is 210 nM.
